Test results: patent publication US20240269238A1, “Therapeutic Regimens and Methods for Reducing Body Weight in a Subject with Fatty Liver Disease using a GLP-1R and GCGR Agonist” (Spitfire Pharma LLC, priority 2022, published 2024)

Legend:
[1] = molecular target: glucagon receptor (GCGR) (Homo sapiens, UniProt P47871); assay: cellular assay, agonist activity at GCGR; assay type: cell-based
Description: This disclosure relates to a dual agonist peptide(s) as well as pharmaceutical dosage formulations comprising, and methods for using, the same. The dual agonist peptides have affinity for, and in preferred embodiments about equal affinity for, glucagon-like peptide 1 receptor (GLP-1R) and glucagon receptor (GCGR), as may be determined using a cellular assay. In some embodiments, this disclosure provides pharmaceutical dosage formulations configured to induce weight loss in a human being with fatty liver disease. In some embodiments, the human being may, or may not, suffer from type 2 diabetes. In some embodiments, the disclosure provides pharmaceutical dosage formulations configured to reduce pathogenic plasma lipid mediators. As used herein, “pathogenic” serum lipid mediators, included but are not limited to the following reactive lipid species: malondialdehyde (MDA), isolevuglandins (IsoLG), methyglyoxal (MGO), 4-oxononenal (ONE), and 4-hydroxynonenal (HNE). Oxidized phospholipids include 1-palmitoyl-2-oxovaleroyl-sn-glycero-3-phosphorylcholine (POVPC), 1-O-alkyl-2-azelaoyl-sn-glycero-3-phophorylcholine (azPAF), 1-(Palmitoyl)-2-(5-keto-6-octene-dioyl) phosphatidylcholine (KOdiA-PC), 1-palmitoyl-2-F2-isoprostane-sn-glycero-3-phosphocholine (F2IsoP-PC), and 1-palmitoyl-2-(5,6)-epoxyisoprostane E2-sn-glycero-3-phosphocholine (PEIPC). […]

[2] = Phase 1 12-week study in overweight/obese subjects (NCT0456124, Example 2): key pharmacodynamic endpoints; assay type: in vivo, human
Protocol: To test the lipid-lowering effects of pemvidutide, an analysis of Phase I clinical trial (NCT0456124) data was carried out. The subjects with overweight/obesity (BMI 25-40 kg/m^2) were randomized at 1 site in Australia (NCT0456124). Subjects were randomized 4:1 pemvidutide:placebo, with placebos pooled. […] Lipoprotein and glycoprotein profiling covering 33 lipoprotein related parameters was performed by ^1H-NMR on fasting plasma samples obtained at Day −1 (baseline), Day 43, and Day 84 from the 34 subjects who completed NCT0456124. Lipidomic profiling covering 600 lipid species was performed by ultra-high performance liquid chromatography-mass spectrometry on fasting plasma samples obtained at Day −1 (baseline), Day 43, and Day 84 from the 34 subjects who completed NCT0456124. For the lipid profiling, plasma fractionation was performed either using methanol to extract fatty acyls, bile acids, steroids, and lyso-glycerophospholipids, or using a chloroform/methanol mix to extract glycerolipids, cholesteryl esters, sphingolipids, and glycerophospholipids. Lipid classification followed the classification system proposed by Fahy et al. (J. Lipid Res. 2005; 46:839-861) and the LIPID MAPS initiative (http://www.lipidmaps.org) (see FIG. 8).

Sequence of glucagon receptor (GCGR) (P47871 26-477): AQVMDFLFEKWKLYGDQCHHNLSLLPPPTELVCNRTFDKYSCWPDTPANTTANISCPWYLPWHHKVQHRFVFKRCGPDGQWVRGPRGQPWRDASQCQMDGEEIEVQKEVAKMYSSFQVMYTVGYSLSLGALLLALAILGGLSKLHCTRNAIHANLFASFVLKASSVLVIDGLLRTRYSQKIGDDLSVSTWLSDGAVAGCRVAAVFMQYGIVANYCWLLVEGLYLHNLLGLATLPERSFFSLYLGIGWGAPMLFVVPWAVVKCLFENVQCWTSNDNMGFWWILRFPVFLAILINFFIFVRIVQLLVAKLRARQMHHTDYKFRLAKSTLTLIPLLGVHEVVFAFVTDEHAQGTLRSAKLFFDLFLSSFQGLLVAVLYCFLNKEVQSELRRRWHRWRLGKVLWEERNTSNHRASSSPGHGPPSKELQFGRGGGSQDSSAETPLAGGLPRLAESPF

## CC[C@H](C)[C@H](NC(=O)[C@H](Cc1ccccc1)NC(=O)[C@H](CCC(=O)O)NC(=O)[C@@H]1CCCCNC(=O)CC[C@H](NC(=O)[C@H](CC(=O)O)NC(=O)[C@H](CC(C)C)NC(=O)[C@H](Cc2ccc(O)cc2)NC(=O)[C@H](CCCCN)NC(=O)[C@H](CO)NC(=O)[C@H](Cc2ccc(O)cc2)NC(=O)[C@H](CC(=O)O)NC(=O)[C@H](CO)NC(=O)[C@@H](NC(=O)[C@H](Cc2ccccc2)NC(=O)[C@@H](NC(=O)CNC(=O)[C@H](CCC(N)=O)NC(=O)C(C)(C)NC(=O)[C@@H](N)Cc2c[nH]cn2)[C@@H](C)O)[C@H](C)O)C(=O)N[C@@H](CCCCNC(=O)C2O[C@@H](OCCCCCCCCCCCCCCCCCC(=O)O)C(O)C(O)[C@@H]2O)C(=O)N[C@@H](C)C(=O)N[C@@H](C)C(=O)N1)C(=O)N[C@@H](CCC(N)=O)C(=O)N[C@@H](Cc1c[nH]c2ccccc12)C(=O)N[C@@H](CC(C)C)C(=O)N[C@@H](CC(C)C)C(=O)N[C@@H](CCC(N)=O)C(=O)N[C@H](C(N)=O)[C@@H](C)O (some centres unmarked) [ALT-801, Pemvidutide]
[1]
  EC50: ~0.04 nM
[2]; 1.2 mg weekly, 12 weeks
  Apoprotein B, change from baseline, mean: −45.4%
  BMI, change from baseline, mean: −4.8%
  Diastolic BP, change from baseline, mean: −4.7%
  HDL cholesterol, change from baseline, mean: −16.7%
  LDL cholesterol, change from baseline, mean: −18.4%
  Systolic BP, change from baseline, mean: −10.2%
  Total cholesterol, change from baseline, mean: −20.0%
  Triglycerides, change from baseline, mean: −37.0%
[2]; 1.2 mg weekly, 12 weeks (n = 7)
  Weight loss, change from baseline, mean: −4.9%
[2]; 1.8 mg dose level, 12 weeks
  mean body weight loss, placebo adjusted: 8.7%
[2]; 1.8 mg dose level, 12 weeks of weekly treatment
  mean body weight loss: 10.3%
[2]; 1.8 mg group, week 12
  subjects achieving at least 10% body weight loss: over half
  subjects losing at least 5% of body weight: all subjects lost at least 5% of their body weight
[2]; 1.8 mg weekly, 12 weeks
  Apoprotein B, change from baseline, mean: −23.4%
  BMI, change from baseline, mean: −10.4%
  Diastolic BP, change from baseline, mean: −7.1%
  HDL cholesterol, change from baseline, mean: −30.3%
  LDL cholesterol, change from baseline, mean: −25.6%
  Systolic BP, change from baseline, mean: −12.5%
  Total cholesterol, change from baseline, mean: −28.0%
  Triglycerides, change from baseline, mean: −37.9%
[2]; 1.8 mg weekly, 12 weeks (n = 9)
  Weight loss, change from baseline, mean: −10.3%
[2]; 2.4 mg weekly, 12 weeks
  Apoprotein B, change from baseline, mean: −16.8%
  BMI, change from baseline, mean: −7.0%
  Diastolic BP, change from baseline, mean: −6.0%
  HDL cholesterol, change from baseline, mean: −36.0%
  LDL cholesterol, change from baseline, mean: −23.9%
  Systolic BP, change from baseline, mean: −17.4%
  Total cholesterol, change from baseline, mean: −27.7%
  Triglycerides, change from baseline, mean: −29.2%
[2]; 2.4 mg weekly, 12 weeks (n = 11)
  Weight loss, change from baseline, mean: −9.0%
